Entries after “also recorded” stand apart in the source; their conditions may differ.
System: E-selectin-expressing CHO cells
Assay: Rolling and adhesion of E-selectin-expressing CHO cells on ganglioside-coated beads under dynamic flow (parallel plate laminar flow chamber)
Assay type: cell-based, Chinese hamster
Details: for rolling and adhesion of E-selectin-expressing CHO cells / adhesion of E-selectin-expressing CHO cells / rolling of E-selectin-expressing CHO cells: dynamic flow conditions, shear stress 0.6-12 dynes/cm^2; for rolling and adhesion of E-selectin-expressing CHO cells at 100 ng ganglioside: 100 ng of single fraction or mixture of 50 ng each, 1 μm beads, 4.8 and 2.4 dynes/cm^2 (FIG. 3A); for rolling and adhesion of E-selectin-expressing CHO cells at low ganglioside quantity: 0.05-0.1 ng ganglioside per spot (mixture 0.05 ng each), 1 μm beads (FIGS. 3B, 4A, 4B)
Text: FIGS. 2A-2E show rolling and adhesion of E-selectin-expressing CHO cells to polystyrene beads coated with various gangliosides under dynamic flow conditions. Various poly-LacNac gangliosides were quantitatively adsorbed on beads affixed to glass microscope slides as described in the Materials & Methods section in the EXAMPLE. These polystyrene beads affixed on galss plates are resistant to dynamic flow. GSL coated on beads are therefore very stable in dynamic flow. Slides were blocked by placing 2% BSA in PBS at room temp for 1 hr, and assembled in a parallel-plate laminar-flow chamber. E-selectin-expressing CHO cells were freshly harvested and suspended in RPMI medium (1×10^5 cells/mL). The cell suspensions were placed in an infusion pump connected to the flow chamber, and infused into the assembly at various laminar flow rates. Cell movements were observed under phase-contrast microscope and recorded by videocassette recorder. Numbers of rolling cells (.smallcircle.) and adherent (nonrolling) cells (.circle-solid.), in at least 10 microscope fields, at four different shear stresses (dynes/cm^2; see abscissa), were plotted.
Polystyrene latex beads ([…] or 1 μm) used as carriers of GSLs as above were suspended in ethanol. 1 μL aliquots of suspension were placed on precleaned and specially treated microscope slides (Labcraft Superfrost® Plus, Curtin Matheson Scientific, Houston, Tex.). Beads were distributed homogeneously on the glass surface within a circular spot with diameter about 1 cm. Slides were heated at 150° C. for 50 sec, which caused the beads to adhere strongly to the surface such that they could not be washed off by water stream at various velocities. Gangliosides dissolved in IHW at the same molar concentration were applied to latex beads affixed on the slides; namely, 1 μL aliquots containing 50-100 or 0.05-0.1 ng ganglioside were placed on the center of a circular spot. The ganglioside thus became affixed to the bead surface.
Slides prepared as above, as they are or after treatment consisted of incubating said slides for at least an hour at room temperature with 3% BSA prewarmed at 37° C. and washing with PBS containing CA^2+ /Mg^2+ (i.e., PBS(+)) were placed in a parallel plate laminar flow chamber connected to an infusion pump (model 935, Harvard Apparatus, Cambridge, Mass.). The assembly, originally described by Lawrence et al. (Lawrence et al., 1990, Blood 75:227-237; Lawrence and Springer, 1991, Cell 65:859-873), simulates the flow shear stress present in physiological microvascular environments. A laminar flow with defined rate and wall shear stress is achieved by manipulation of the infusion pump, which is connected to the inlet of the flow chamber. A suspension of E- or P-selectin-expressing CHO cells (1×10^5 /mL in FIGS. 2A-2E, 2×10^5/ cells mL in FIG. 3A, 5×10^5 /cells mL in FIGS. 3B, 4A and 4B), freshly harvested from culture with EDTA, washed, and resuspended in 1% FCS-RPMI medium, was infused into the assembly at various laminar flow rates. Cell movements were observed under inverted phase-contrast microscope (Diaphot-TMD, Nikon) and recorded by time-lapse videocassette recorder. Cell rolling and adhesion were observed, and numbers of rolling and adherent cells during a 2 min period at shear stresses, from 0.6-12.0 dynes/cm^2 were counted from at least 10 fields on videotape. Wall shear stress (T) was calculated by the equation of Lawrence et al. (Lawrence et al., 1990 Blood 75:227-237; Lawrence et al., 1987, Blood 70: 1284-1290): T=3 μQ/2ba^2, where μ=coefficient of viscosity (1.0 cP), Q=volumetric flow rate (cm^3 /sec), a=half channel height (in this case, 5.7×10^-3 cm), and b=channel width (1.3 cm).
10, 13-1, and 14 (containing Str. 4-5, Str. 7-8, and Str. 9-12 in Table 1, respectively). […] 10 and 14, which have myelorollin structure and lack SLe^x epitope (FIG. 4). Polystyrene beads were affixed to glass microscope slides. Various gangliosides were coated as described in Materials & Methods. […]

In the case of “VIII^3 NeuAcIII^3 FucnLc8 Cer [Fr. 10-2]”, the “rolling and adhesion of E-selectin-expressing CHO cells” value is reported as “strong rolling and adhesion”, the “rolling and adhesion of E-selectin-expressing CHO cells at 100 ng ganglioside” value (dynamic flow) is reported as “comparable rolling and Vadhesion; also recorded: comparable to each other; also recorded: comparable adhesion” and the “rolling and adhesion of E-selectin-expressing CHO cells at 100 ng ganglioside” value (dynamic flow, listed as 10-2) is reported as “comparable”. For the same substance, the “rolling and adhesion of E-selectin-expressing CHO cells at low ganglioside quantity” value (dynamic flow) was “still produced marked rolling and adhesion” and the “rolling and adhesion of E-selectin-expressing CHO cells at low ganglioside quantity” value (dynamic flow, listed as 10-2) was “still produced marked rolling/adhesion”.

VIII^3 NeuAcV^3 FucnLc8 Cer [Fr. 10-1] was tested, and the “rolling and adhesion of E-selectin-expressing CHO cells” value was “strong rolling and adhesion”, the “rolling and adhesion of E-selectin-expressing CHO cells at 100 ng ganglioside” value (dynamic flow) was “comparable rolling and Vadhesion; also recorded: comparable to each other; also recorded: comparable adhesion” and the “rolling and adhesion of E-selectin-expressing CHO cells at 100 ng ganglioside” value (dynamic flow, listed as 10-1) was “comparable”. For the same substance, the “rolling and adhesion of E-selectin-expressing CHO cells at low ganglioside quantity” value (dynamic flow) was “did not”.

In the case of “VI^3 NeuAcV^3 FucIII^3 FucnLc6 Cer [SLe^x -Le^x, reference compound]”, the “adhesion of E-selectin-expressing CHO cells” value is reported as “Low level of adhesion without rolling; also recorded: adherent, but not rolling; also recorded: significantly lower than for Fr. 13-1 or 14; also recorded: only weak adhesion compared to Fr. 10-1, 10-2, 13-1 and 14; also recorded: relatively weak adhesion compared to Fr. 10-1, 10-2, 13-1, and 14”, the “rolling and adhesion of E-selectin-expressing CHO cells” value is reported as “weaker than myelorollin structures; also recorded: weaker than myeloglycan or myelorollin structures” and the “rolling of E-selectin-expressing CHO cells” value is reported as “not observed (or barely observed); also recorded: No rolling was observed”. The “adhesion of E-selectin-expressing CHO cells” value (listed as Str. 3) was “did produce cell adhesion, but to a lesser extent than the myelorollin fractions; also recorded: lower level of adhesion”, the “rolling of E-selectin-expressing CHO cells” value (listed as Str. 3) was “no cell rolling” and the “rolling of E-selectin-expressing CHO cells” value (listed as sialyl Le^x -Le^x) was “No rolling was observed”. For the same substance, the rolling number (dynamic flow, 4 μm beads, every field at all shear stresses (FIG. 2A)) was 0, the “number of cells adhered without rolling” value (dynamic flow, shear stresses 12 to 1.2 dynes/cm^2 (FIG. 6A)) was “less than 5 /field” and the “rolling and adhesion of E-selectin-expressing CHO cells at low ganglioside quantity” value (dynamic flow) was “no rolling or adhesion; also recorded: no rolling and adhesion observed; also recorded: essentially no cell rolling and adhesion; also recorded: did not cause any E-selectin-dependent cell rolling or adhesion”.

With VI^3 NeuAcnLc6 Cer [Fr. 7] the “adhesion of E-selectin-expressing CHO cells” value was “no cell adhesion”.

With “X^3 NeuAcVII^3 FucV^3 FucnLc10 Cer [Fr. 13-1]” the “rolling of E-selectin-expressing CHO cells” value was “more frequent at 4.8 and 2.4 than at 1.2 dynes/cm^2; also recorded: caused strong rolling”, the “shear stress at which plain rolling and rolling followed by adhesion was maximal / most clearly observed” value (dynamic flow, 12, 4.8, 2.4, 1.2 and 0.6 dynes/cm^2 (FIGS. 6A-6D)) was 2.4 dynes/cm^2 and the “shear stress at which rolling (rolling/adhesion) was highest” value (dynamic flow, ganglioside on 1 μm beads (FIGS. 2D, 2E)) was 4.8 dynes/cm^2.

With X^3 NeuAcVII^3 FucnLc10 Cer [Fr. 12-2] the “Number of E-selectin expressing cells adhered on myelorollin under dynamic flow, column 5” value (0.6-1.2 dynes/cm^2, column head 5 (not explained)) was 5 (±2), the “Number of E-selectin expressing cells adhered on myelorollin under dynamic flow, column 10” value (0.6-1.2 dynes/cm^2, column head 10 (not explained)) was 3 (±1) and the “rolling and adhesion of E-selectin-expressing CHO cells” value was “lower than for Frs. 13-1 and 14 (FIGS. 2C and 2E), but comparable to SLe^x -Le^x; also recorded: lower than for Fr. 13-1 and 14 (FIG. 2C and FIG. 2E), but comparable to SLe^x -Le^x”. For the same substance, the “shear stress at which rolling was highest” value (dynamic flow, ganglioside on 4 μm beads (FIG. 2B)) was 4.8 dynes/cm^2.

Source: US5876715A, “Antibodies that bind novel carbohydrate ligands (myelorollins) that cause E-selectin dependent cell rolling, and uses thereof” (The Biomembrane Institute, priority 1996, dated 1999)
